According to patent US10766869B2, “Triazoles for the treatment of demyelinating dieases” (Vertex Pharmaceuticals Incorporated, priority 2015, dated 2020):
Like-named read-outs stand apart in the source and are kept apart here.

Tested on: primary rat mixed cortical cells
Assay: In vitro myelination assay (MBP positive myelin strands, fold myelin pixels above background)
Assay type: cell-based
Details: Rattus norvegicus; for fold induction at 1 µM: 1.0 μM compound; for fold induction at 10 µM: 10.0 μM compound
Summary of the method: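 P1 rat cortical cells (neurons, OPCs, oligodendrocytes, astrocytes, microglia) were cultured 14 days at 37 °C with compound, with half-medium changes containing 1× compound on days 6 and 10. Fixed cells were immunostained for MBP and imaged at 10×. Total MBP myelin pixels per well were expressed as fold above no-compound baseline at 1.0 μM and 10.0 μM.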

[1] = relative to baseline of no added compound, read-out: Fold myelin pixels above background, 1.0 μM
[2] = relative to baseline of no added compound, read-out: Fold myelin pixels above background, 10.0 μM
[3] = relative to baseline of no added compound, read-out: Fold myelin pixels above background
[4] = read-out: Fold myelin pixels above background relative to baseline of no added compound

Q: What does the source list for `Cc1cc(Nc2ncn(-c3cnccn3)n2)cc(N2CCN(C3(C)COC3)CC2)c1` [Compound 136, N-[3-methyl-5-[4-(3-methyloxetan-3-yl)piperazin-1-yl]phenyl]-1-pyrazin-2-yl-1,2,4-triazol-3-amine]?
A: fold induction at 1 µM [1]: 1 to 10; fold induction at 10 µM [2]: 10 to 100

Q: What does the source list for `F[C@H]1CCN(c2cc(Nc3ncn(-c4ccccc4)n3)cc(C3CC3)n2)C1` [Compound 460, 2-cyclopropyl-6-[(3S)-3-fluoropyrrolidin-1-yl]-N-(1-phenyl-1,2,4-triazol-3-yl)pyridin-4-amine]?
A: fold induction at 1 µM [3]: 100 to 1000; fold induction at 10 µM [3]: 10 to 100

Q: `FC(F)c1cc(Nc2ncn(-c3cccc(C(F)(F)F)c3)n2)nc(N2CC(N3CCOCC3)C2)c1` [Compound 719, 4-(difluoromethyl)-6-(3-morpholinoazetidin-1-yl)-N-[1-[3-(trifluoromethyl)phenyl]-1,2,4-triazol-3-yl]pyridin-2-amine] was tested. Which fold induction at 1 µM [3] did it give?
A: Its fold induction at 1 µM is 1 to 10.

Q: What about the fold induction at 10 µM [3] of the same compound?
A: The fold induction at 10 µM was ≤ 1.

Q: For `Cc1cc(Nc2ncn(-c3ccc(C#N)cc3)n2)cc(N2CCCC2)c1` [Compound 186, 4-[3-(3-methyl-5-pyrrolidin-1-yl-anilino)-1,2,4-triazol-1-yl]benzonitrile], which fold induction at 1 µM [1] is on record?
A: Its fold induction at 1 µM is 10 to 100.

Q: What about the fold induction at 10 µM [2] of the same compound?
A: Its fold induction at 10 µM is 10 to 100.

Q: For `Cc1cc(Nc2ncn(-c3cc(F)cc(F)c3)n2)cc(NC2CCOCC2N2CCCC2)c1` (centres unmarked) [Compound 884, N3-[1-(3,5-difluorophenyl)-1,2,4-triazol-3-yl]-5-methyl-N1-(3-pyrrolidin-1-yltetrahydropyran-4-yl)benzene-1,3-diamine], which fold induction at 1 µM [4] is on record?
A: The fold induction at 1 µM was 1 to 10.

Q: And the fold induction at 10 µM [4]?
A: The fold induction at 10 µM was ≤ 1.

Q: For `Cc1cc(Nc2ncn(-c3cc(F)cc(F)c3)n2)cc(N2CCC(N3CCOCC3C)CC2)c1` (centres unmarked) [Compound 988, 1-(3,5-difluorophenyl)-N-[3-methyl-5-[4-(3-methylmorpholin-4-yl)-1-piperidyl]phenyl]-1,2,4-triazol-3-amine], which fold induction at 1 µM [4] is on record?
A: The fold induction at 1 µM was 10 to 100.

Q: What about the fold induction at 10 µM [4] of the same compound?
A: The fold induction at 10 µM was 1 to 10.

Q: Which fold induction at 1 µM [1] does the source give for `Cc1cc(Nc2ncn(-c3cc(C)ccn3)n2)cc(N2CCN(C3COC3)CC2)c1` [Compound 54, N-[3-methyl-5-[4-(oxetan-3-yl)piperazin-1-yl]phenyl]-1-(4-methyl-2-pyridyl)-1,2,4-triazol-3-amine] here?
A: Its fold induction at 1 µM is 10 to 100.

Q: And the fold induction at 10 µM [2]?
A: Its fold induction at 10 µM is 100 to 1000.

Q: Which results are given for `Cc1cc(Nc2ncn(-c3cc(F)cc(F)c3)n2)cc(N2C[C@@H]3C[C@H]2CO3)c1` [Compound 822, 1-(3,5-difluorophenyl)-N-[3-methyl-5-[(1S,4S)-2-oxa-5-azabicyclo[2.2.1]heptan-5-yl]phenyl]-1,2,4-triazol-3-amine]?
A: fold induction at 1 µM [4]: 10 to 100; fold induction at 10 µM [4]: ≤ 1

Q: How did the fold induction at 1 µM [3] turn out when `Cc1cc(Nc2ncn(-c3cc(F)cc(F)c3)n2)cc(N2CC(N3CCO[C@@H](C)C3)C2)c1` [Compound 730, 1-(3,5-difluorophenyl)-N-[3-methyl-5-[3-[(2S)-2-methylmorpholin-4-yl]azetidin-1-yl]phenyl]-1,2,4-triazol-3-amine] was run?
A: Its fold induction at 1 µM is 10 to 100.

Q: And the fold induction at 10 µM [3]?
A: The fold induction at 10 µM was 10 to 100.

Q: With `Cc1cc(Nc2ncn(-c3cc(F)cc(F)c3)n2)cc(N2CC(N3CCCCC3)C2)c1` [Compound 634, 1-(3,5-difluorophenyl)-N-[3-methyl-5-[3-(1-piperidyl)azetidin-1-yl]phenyl]-1,2,4-triazol-3-amine] as the compound, how does the fold induction at 1 µM [3] read?
A: The fold induction at 1 µM was 10 to 100.

Q: And the fold induction at 10 µM [3]?
A: The fold induction at 10 µM was 10 to 100.

Q: With `Cc1cc(Nc2ncn(-c3ccc(F)c(F)c3)n2)cc(O[C@@H]2CCCN(C3COC3)C2)c1` (single isomer, unassigned) [Compound 665] as the compound, how does the fold induction at 1 µM [3] read?
A: Its fold induction at 1 µM is 10 to 100.

Q: And the fold induction at 10 µM [3]?
A: Its fold induction at 10 µM is 1 to 10.

Q: `OC1(C2CN(c3cc(Nc4ncn(-c5cc(F)cc(F)c5)n4)cc(C(F)(F)F)c3)CCN2)CCC1` (centres unmarked) [Compound 4, 1-[4-[3-[[1-(3,5-difluorophenyl)-1,2,4-triazol-3-yl]amino]-5-(trifluoromethyl)phenyl]piperazin-2-yl]cyclobutanol] was tested. Which fold induction at 1 µM [1] did it give?
A: The fold induction at 1 µM was 1 to 10.

Q: What about the fold induction at 10 µM [2] of the same compound?
A: The fold induction at 10 µM was ≤ 1.

Q: For `Cc1cc(Nc2ncn(-c3cc(F)cc(F)c3)n2)cc(N2CCN3C(=O)OCC3C2)c1` (centres unmarked) [Compound 200, 7-[3-[[1-(3,5-difluorophenyl)-1,2,4-triazol-3-yl]amino]-5-methyl-phenyl]-5,6,8,8a-tetrahydro-1H-oxazolo[3,4-a]pyrazin-3-one], which fold induction at 1 µM [1] is on record?
A: The fold induction at 1 µM was 100 to 1000.

Q: And the fold induction at 10 µM [2]?
A: Its fold induction at 10 µM is 100 to 1000.

Q: Which fold induction at 1 µM [3] does the source give for `Cc1cc(Nc2ncn(-c3cc(F)cc(F)c3)n2)cc(C2(O)CCN(C3COC3)C2)c1` (centres unmarked) [Compound 416, 3-[3-[[1-(3,5-difluorophenyl)-1,2,4-triazol-3-yl]amino]-5-methyl-phenyl]-1-(oxetan-3-yl)pyrrolidin-3-ol] here?
A: Its fold induction at 1 µM is 100 to 1000.

Q: And the fold induction at 10 µM [3]?
A: The fold induction at 10 µM was 10 to 100.

Q: What does the source list for `Cc1cc(Nc2ncn(-c3cnccn3)n2)cc(N2CCCN(C3COC3)CC2)c1` [Compound 818, N-[3-methyl-5-[4-(oxetan-3-yl)-1,4-diazepan-1-yl]phenyl]-1-pyrazin-2-yl-1,2,4-triazol-3-amine]?
A: fold induction at 1 µM [4]: 10 to 100; fold induction at 10 µM [4]: 100 to 1000

Q: What does the source list for `Cc1cc(Nc2ncn(-c3cc(F)cc(F)c3)n2)cc(NC2CCN(CC(F)F)CC2)c1` [Compound 992, N1-[1-(2,2-difluoroethyl)-4-piperidyl]-N3-[1-(3,5-difluorophenyl)-1,2,4-triazol-3-yl]-5-methyl-benzene-1,3-diamine]?
A: fold induction at 1 µM [4]: 1 to 10; fold induction at 10 µM [4]: 1 to 10

Q: With `Cc1cc(Nc2ncn(-c3ccccc3)n2)cc(N2CCN(CC(F)(F)F)CC2)c1` [Compound 398, N-[3-methyl-5-[4-(2,2,2-trifluoroethyl)piperazin-1-yl]phenyl]-1-phenyl-1,2,4-triazol-3-amine] as the compound, how does the fold induction at 1 µM [3] read?
A: The fold induction at 1 µM was 1000 to 10000.

Q: What about the fold induction at 10 µM [3] of the same compound?
A: The fold induction at 10 µM was 100 to 1000.

Q: `COc1ccc(-n2cnc(Nc3cc(C4CC4)nc(N4CCC(C)CC4)c3)n2)cc1OC` [Compound 22, 2-cyclopropyl-N-[1-(3,4-dimethoxyphenyl)-1,2,4-triazol-3-yl]-6-(4-methyl-1-piperidyl)pyridin-4-amine] was tested. Which fold induction at 1 µM [1] did it give?
A: The fold induction at 1 µM was 100 to 1000.

Q: What about the fold induction at 10 µM [2] of the same compound?
A: Its fold induction at 10 µM is 100 to 1000.

Q: Which results are given for `Cc1cc(Nc2ncn(-c3ccc(F)c(F)c3)n2)cc(N2CC(N3CCCOCC3)C2)c1` [Compound 659, 1-(3,4-difluorophenyl)-N-[3-methyl-5-[3-(1,4-oxazepan-4-yl)azetidin-1-yl]phenyl]-1,2,4-triazol-3-amine]?
A: fold induction at 1 µM [3]: 10 to 100; fold induction at 10 µM [3]: 10 to 100

Q: `COC[C@H](C)NC(=O)C1CN(c2cc(C)cc(Nc3ncn(-c4cc(F)cc(F)c4)n3)c2)C1` [Compound 584, 1-[3-[[1-(3,5-difluorophenyl)-1,2,4-triazol-3-yl]amino]-5-methyl-phenyl]-N-[(1S)-2-methoxy-1-methyl-ethyl]azetidine-3-carboxamide] was tested. Which fold induction at 1 µM [3] did it give?
A: The fold induction at 1 µM was 10 to 100.

Q: And the fold induction at 10 µM [3]?
A: The fold induction at 10 µM was 1 to 10.

Q: With `CCc1cc(Nc2ncn(-c3ccc(OC(F)(F)F)cc3)n2)cc(N2CCN(C3COC3)CC2)c1` [Compound 303, N-[3-ethyl-5-[4-(oxetan-3-yl)piperazin-1-yl]phenyl]-1-[4-(trifluoromethoxy)phenyl]-1,2,4-triazol-3-amine] as the compound, how does the fold induction at 1 µM [1] read?
A: Its fold induction at 1 µM is 1 to 10.

Q: What about the fold induction at 10 µM [2] of the same compound?
A: Its fold induction at 10 µM is 1 to 10.

Q: How did the fold induction at 1 µM [4] turn out when `Cc1cc(Nc2ncn(-c3cc(F)cc(F)c3)n2)cc(N2CCN(CC(C)(C)O)C(C)C2)c1` (centres unmarked) [Compound 941, 1-[4-[3-[[1-(3,5-difluorophenyl)-1,2,4-triazol-3-yl]amino]-5-methyl-phenyl]-2-methyl-piperazin-1-yl]-2-methyl-propan-2-ol] was run?
A: The fold induction at 1 µM was 1 to 10.

Q: What about the fold induction at 10 µM [4] of the same compound?
A: The fold induction at 10 µM was 1 to 10.
